We go through 24 compounds from ChEMBL document CHEMBL4765487, “From a Designer Drug to the Discovery of Selective Cannabinoid Type 2 Receptor Agonists with Favorable Pharmacokinetic Profiles for the Treatment of Systemic Sclerosis” (J Med Chem, 2021).

As a reminder, the Emax is the greatest response seen or fitted, relative to the assay's reference. By EC50 is commonly meant the concentration giving half of the maximal effect. What is called microsomal CLint is a measure of how fast metabolising enzymes remove a compound, apart from limits set by blood flow. A lower microsomal CLint goes with greater metabolic stability. As usually defined, the CLint scaled is the capacity of the preparation to metabolise the compound, expressed as a volume cleared per time. Higher therefore signals faster metabolism.

In data set [1] the target is T1, Cannabinoid receptor 2 (Homo sapiens, UniProt P34972). As to the kind of experiment: Agonist activity at human CB2 receptor expressing CHO cells co-expressing Galpha16 by calcium mobilization assay relative to CP55940. In kind it is functional, cell-based. The following applies: filed as agonist. A general note: Calcium flux is commonly read through the fluorescence of an indicator in the cells.

For data set [2], the target named is T1, Cannabinoid receptor 2. As to the kind of experiment: Agonist activity at human CB2 receptor expressing CHO cells co-expressing Galpha16 by calcium mobilization assay. In kind it is functional, cell-based.
Data set [3] concerns the target T2, Cannabinoid receptor 1 (Homo sapiens, UniProt P21554). As to the kind of experiment: Agonist activity at human CB1 receptor expressing CHO cells co-expressing Galpha16 by calcium mobilization assay. It is filed as functional, cell-based.
Data set [4] concerns the target T2, Cannabinoid receptor 1. As to the kind of experiment: Agonist activity at human CB1 receptor expressing CHO cells co-expressing Galpha16 by calcium mobilization assay relative to CP55940. In kind it is functional, cell-based. As to conditions: filed as agonist; call rule not given here.
Data set [5] addresses T1, Cannabinoid receptor 2. The data set can be described thus: Antagonist activity at human CB2 receptor expressing CHO cells co-expressing Galpha16 assessed as inhibition of CP55940-induced calcium mobilization pre-incubated for 15 mins before CP55940 addition. In kind it is functional, cell-based. The following applies: cho.
The nature of data set [6]: in vitro. The following applies: human, liver microsomes. On the technique in general: Microsomes from liver hold many membrane-bound enzymes, among them those of drug oxidation.
Data set [7] can be described thus: in vitro. The following applies: human, liver.

T1 sequence (P34972 whole entry): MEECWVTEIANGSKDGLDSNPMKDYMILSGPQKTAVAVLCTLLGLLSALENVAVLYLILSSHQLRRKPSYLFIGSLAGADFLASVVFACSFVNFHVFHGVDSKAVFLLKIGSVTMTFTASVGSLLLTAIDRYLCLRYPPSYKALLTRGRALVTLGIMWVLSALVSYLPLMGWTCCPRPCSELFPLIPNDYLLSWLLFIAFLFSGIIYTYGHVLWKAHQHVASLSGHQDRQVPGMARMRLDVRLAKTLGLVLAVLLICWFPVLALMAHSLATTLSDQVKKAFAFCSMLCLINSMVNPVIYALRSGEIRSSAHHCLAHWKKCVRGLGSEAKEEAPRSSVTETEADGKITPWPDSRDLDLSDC
T2 sequence (P21554 whole entry): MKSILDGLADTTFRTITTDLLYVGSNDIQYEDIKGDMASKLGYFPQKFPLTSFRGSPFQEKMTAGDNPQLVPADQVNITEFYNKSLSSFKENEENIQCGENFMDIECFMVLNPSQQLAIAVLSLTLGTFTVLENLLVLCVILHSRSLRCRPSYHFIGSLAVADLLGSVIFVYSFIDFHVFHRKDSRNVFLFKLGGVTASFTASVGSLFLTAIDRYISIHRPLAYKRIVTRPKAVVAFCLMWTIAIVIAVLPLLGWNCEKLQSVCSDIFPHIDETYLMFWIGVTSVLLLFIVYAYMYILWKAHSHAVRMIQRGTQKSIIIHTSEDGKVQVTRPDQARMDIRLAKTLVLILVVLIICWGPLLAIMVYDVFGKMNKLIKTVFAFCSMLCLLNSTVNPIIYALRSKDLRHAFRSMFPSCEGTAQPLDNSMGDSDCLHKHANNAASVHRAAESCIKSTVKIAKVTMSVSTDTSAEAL

For `CCCCCn1nc(C(=O)N[C@@H](C(=O)OC)C(C)(C)C)cc1C(C)(C)C`, the Emax in data set [1] and in data set [4] was 100% in each case. For the same compound, the EC50 in data set [2] worked out at 0.0261 µM; in data set [3], 0.0043 µM.
For `CC(C)(CO)NC(=O)c1cc(C(C)(C)C)n(-c2cccnc2)n1`, the EC50 in data set [2] and in data set [3] was 100 µM in each case.
In the case of `CC(C)(CO)NC(=O)c1cc(C(C)(C)C)n(-c2ccc(F)cn2)n1`, the Emax in data set [1] came out at 100%. Further, the EC50 in data set [2] was determined as 0.135 µM; in data set [3], 100 µM.
For the compound `CCCCCn1nc(C(=O)NC(C)(C)CO)cc1C(C)C`, the values for the Emax in data set [1] and in data set [4] were 70% and 90%, respectively. In addition, in data set [5], the IC50 entry is recorded as “Not Active”. Further, the EC50 in data set [2] was found to be 0.0385 µM; in data set [3] it was 0.171 µM.
Compound `O=C(O)Cc1ccccc1Nc1c(Cl)cccc1Cl` [DICLOFENAC] displayed a microsomal CLint at 1 µM in data set [6] of 129 µL/min/mg. This compound showed a CLint scaled at 1 µM in data set [7] of 116 mL/min/kg.
As for `CCCCCn1nc(C(C)(C)C)cc1C(=O)NC(C)(C)CO`, the Emax in data set [1] worked out at 80%. Further, the values for the EC50 in data set [2] and in data set [3] were 0.319 µM and 100 µM, respectively.
As for `CC(C)(CO)NC(=O)c1cc(C(C)(C)C)n(-c2ccc(OC(F)(F)F)cc2)n1`, the EC50 in data set [2] and in data set [3] was 100 µM throughout.
`CCCCn1nc(C(=O)NC(C)(C)CO)cc1C(C)(C)C`: the Emax is 100% in data set [1] and 90% in data set [4]. Moreover, the EC50 in data set [2] was found to be 0.0101 µM; in data set [3], 0.101 µM.
As for `CCCCCn1nc(C(C)(C)C)cc1C(=O)NC12CC3CC(CC(C3)C1)C2`, the EC50 in data set [2] and in data set [3] was 100 µM each time.
`CC(C)(CO)NC(=O)c1cc(C(C)(C)C)n(-c2ccc(Cl)cn2)n1`: in data set [1], the Emax turned out to be 50%. Moreover, the EC50 in data set [2] is 7.31 µM; in data set [3], 100 µM.
For the compound `CC(C)(CO)NC(=O)c1cc(C(C)(C)C)n(CCCCCF)n1`, the Emax in data set [1] is 70%; in data set [4], 90%. The results for the EC50 in data set [2] and in data set [3] were 0.0364 µM and 0.043 µM, respectively.
As to `CC(C)(CO)NC(=O)c1cc(C(C)(C)C)n(-c2ncccn2)n1`, the EC50 in data set [2] and in data set [3] was 100 µM in each case.
On to `CC(C)(CO)NC(=O)c1cc(C(C)(C)C)n(-c2ccc(C(F)(F)F)cc2)n1`, for which the EC50 in data set [2] and in data set [3] was 100 µM throughout.
Turning to `CCCCCn1nc(C(C)(C)C)cc1C(=O)Nc1ccc(Cl)cc1`, the EC50 in data set [2] and in data set [3] was 100 µM throughout.
For the compound `CCCCCn1nc(C(=O)NC(C)(C)CO)cc1C1CCCCC1`, the IC50 entry in data set [5] is “Not Active”. The EC50 in data set [2] and in data set [3] was 100 µM in each case.
Take `Cc1ccc(-n2nc(C(=O)NC(C)(C)CO)cc2C(C)(C)C)cc1`: the Emax in data set [1] worked out at 40%. The EC50 in data set [2] was found to be 0.197 µM; in data set [3] it was 100 µM.
For the compound `CCCCCn1nc(C(=O)NCc2ccc(Cl)cc2)cc1C(C)(C)C`, the EC50 in data set [2] and in data set [3] was 100 µM in each case.
Consider `CC(C)(CO)NC(=O)c1cc(C(C)(C)C)n(-c2ccccn2)n1`, for which the Emax in data set [1] was found to be 80%. In addition, the EC50 stood at 3.89 µM in data set [2] and 100 µM in data set [3].
The matching figures for `CC(C)(CO)NC(=O)c1cc(C(C)(C)C)n(-c2ccc(F)cc2)n1`: 82%, 0.685 µM and 100 µM.
With `CC(C)(CO)NC(=O)c1cc(C(C)(C)C)n(CCCCF)n1`, the Emax in data set [1] and in data set [4] was 100% throughout. For the same compound, the EC50 in data set [2] came to 0.0659 µM; in data set [3], 2.85 µM.
Consider `CCCCCn1nc(C(=O)NC(C)(C)CO)c(Br)c1C(C)(C)C`, for which the Emax in data set [1] came out at 100%; in data set [4] it was 50%. In data set [5], the IC50 result is given as “Not Active”. Further, the EC50 in data set [2] was found to be 0.002 µM; in data set [3] it was 0.027 µM.
With `COCCn1nc(C(=O)NC(C)(C)CO)cc1C(C)(C)C`, the EC50 in data set [2] and in data set [3] was 100 µM each time.
On to `CC(C)(CO)NC(=O)c1cc(C(C)(C)C)n(-c2ncc(C(F)(F)F)cc2Cl)n1`, for which the EC50 in data set [2] and in data set [3] was 100 µM throughout.
For `CC(C)(CO)NC(=O)c1cc(C(C)(C)C)n(-c2ccc(Cl)cc2)n1`, the Emax in data set [1] was 100%. In addition, the figures for the EC50 in data set [2] and in data set [3] were 0.204 µM and 100 µM, respectively.
